These results are taken from patent publication US8828908B2, “Herbicidally active bicyclic 1,3-dione compounds” (Syngenta Limited, priority 2007, dated 2014).

Holding throughout (format): in vivo
Assay [1] relates to Alopecurus myosuroides (ALOMY). The assay can be described thus: Example B post-emergence herbicidal greenhouse test. The settings on record: 360 h, evaluated after 15 days, 100=total damage to plant, 0=no damage. The method, then: (§1) Seeds of a variety of test species were sown in standard soil in pots. After cultivation for one day (pre-emergence) or after 10 days cultivation (post-emergence) under controlled conditions in a glasshouse, the plants were sprayed with an aqueous spray solution derived from the formulation of the technical active ingredient in 0.6 ml acetone and 45 ml formulation solution containing 10.6% Emulsogen EL (Registry number 61791-12-6), 42.2% N-methylpyrrolidone, 42.2% dipropylene glycol monomethyl ether (Registry number 34590-94-8) and 0.2% X-77 (Registry number 11097-66-8). The test plants were then grown in a greenhouse under optimum conditions until, 15 days later for post-emergence and 20 days for pre-emergence, the test was evaluated (100=total damage to plant; 0=no damage to plant).
(§2) Alopecurus myosuroides (ALOMY), Avena fatua (AVEFA), Lolium perenne (LOLPE), Setaria faberi (SETFA), Digitaria sanguinalis (DIGSA), Echinochloa crus-galli (ECHCG)

For assay [2], the system named is Digitaria sanguinalis (DIGSA). The description is as above. The following applies: 360 h, evaluated after 15 days, 100=total damage to plant, 0=no damage. The protocol: as §1, §2
The subject of assay [3] is Echinochloa crus-galli (ECHCG). The description is as above. The following applies: 360 h, evaluated after 15 days, 100=total damage to plant, 0=no damage. The method, then:
as §1, §2

Assay [4] relates to Setaria faberi (SETFA). Described as above. The following applies: 360 h, evaluated after 15 days, 100=total damage to plant, 0=no damage. The protocol:
as §1, §2

Assay [5] deals with Lolium perenne (LOLPE). Described as above. The settings on record: 360 h, evaluated after 15 days, 100=total damage to plant, 0=no damage. The protocol: as §1, §2
Assay [6] relates to Avena fatua (AVEFA). Described as above. The following applies: 360 h, evaluated after 15 days, 100=total damage to plant, 0=no damage. The protocol: as §1, §2
In assay [7] the test system is Alopecurus myosuroides (ALOMY). The assay can be described thus: Example B pre-emergence herbicidal greenhouse test. The settings on record: 480 h, evaluated after 20 days, 100=total damage to plant, 0=no damage. The protocol:
as §1, §2

For assay [8], the system named is Digitaria sanguinalis (DIGSA). The assay can be described thus: Example B pre-emergence herbicidal greenhouse test. The following applies: 480 h, evaluated after 20 days, 100=total damage to plant, 0=no damage. The method, then:
as §1, §2

Assay [9] deals with Echinochloa crus-galli (ECHCG). Description: Example B pre-emergence herbicidal greenhouse test. The following applies: 480 h, evaluated after 20 days, 100=total damage to plant, 0=no damage. The protocol:
as §1, §2

For assay [10], the system named is Setaria faberi (SETFA). Description: Example B pre-emergence herbicidal greenhouse test. The settings on record: 480 h, evaluated after 20 days, 100=total damage to plant, 0=no damage. The method, then:
as §1, §2

For assay [11], the system named is Lolium perenne (LOLPE). Description: Example B pre-emergence herbicidal greenhouse test. The following applies: 480 h, evaluated after 20 days, 100=total damage to plant, 0=no damage. The method, then: as §1, §2
Assay [12] concerns Avena fatua (AVEFA). Description: Example B pre-emergence herbicidal greenhouse test. The following applies: 480 h, evaluated after 20 days, 100=total damage to plant, 0=no damage. The method, then:
as §1, §2

For the compound `Cc1ccc(-c2ccc(Cl)c(F)c2)cc1C1=C(O)[C@H]2CC[C@H](C2)C1=O` (single isomer, unassigned) [Compound T31], the pest or weed control (usually how far the test organism was held down) at 125 g/ha in [1] was 30%; in [2], 70%; in assay [3], 70%; with Setaria faberi (SETFA) [4] it was 80%; in the assay on Lolium perenne (LOLPE) [5], 20%; in the assay with Avena fatua (AVEFA) [6], 0%. Further, the pest or weed control at 250 g/ha came out at 70% in [7]; 70% in assay [8]; 80% in [9]; 100% in the assay with Setaria faberi (SETFA) [10]; 30% with Lolium perenne (LOLPE) [11]; 40% in the assay with Avena fatua (AVEFA) [12].
Take `Cc1ccc(-c2ccc(Cl)c(Cl)c2)cc1C1=C(O)[C@H]2CC[C@H](C2)C1=O` (single isomer, unassigned) [Compound T10]: the pest or weed control at 125 g/ha turned out to be 10% in [1]; 0% in assay [2]; 0% in [3]; 0% with Setaria faberi (SETFA) [4]; 20% in the assay with Lolium perenne (LOLPE) [5]; 10% in the assay with Avena fatua (AVEFA) [6]. The pest or weed control at 250 g/ha in [7] amounted to 50%; in [8] it was 30%; in assay [9], 50%; in the assay on Setaria faberi (SETFA) [10], 80%; in the assay on Lolium perenne (LOLPE) [11], 20%; in the assay with Avena fatua (AVEFA) [12], 0%.
Regarding `Cc1cc(-c2ccccc2)cc(C)c1C1=C(O)[C@H]2CC[C@H](C2)C1=O` [Compound T6, 3-(3,5-dimethylbiphen-4-yl)bicyclo[3.2.1]-2,4-dione], the pest or weed control at 125 g/ha in assay [1] came to 20%; in assay [2] it was 10%; in assay [3], 30%; in the assay on Setaria faberi (SETFA) [4], 0%; in the assay on Lolium perenne (LOLPE) [5] it was 10%; in the assay on Avena fatua (AVEFA) [6] it was 10%. The pest or weed control at 250 g/ha in assay [7] is 60%; in assay [8], 100%; in [9], 90%; in the assay on Setaria faberi (SETFA) [10], 80%; in the assay with Lolium perenne (LOLPE) [11], 50%; in the assay on Avena fatua (AVEFA) [12] it was 0%.
As for `Cc1ccc(-c2ccc(F)c(Cl)c2)cc1C1=C(O)[C@H]2CC[C@H](C2)C1=O` (single isomer, unassigned) [Compound T29], the pest or weed control at 125 g/ha came to 30% in [1]; 10% in assay [2]; 50% in assay [3]; 60% with Setaria faberi (SETFA) [4]; 0% in the assay on Lolium perenne (LOLPE) [5]; 0% with Avena fatua (AVEFA) [6]. The pest or weed control at 250 g/ha is 10% in assay [7]; 0% in assay [8]; 20% in [9]; 70% in the assay with Setaria faberi (SETFA) [10]; 20% in the assay on Lolium perenne (LOLPE) [11]; 0% with Avena fatua (AVEFA) [12].
Regarding `Cc1ccc(-c2cccc(Cl)c2)cc1C1=C(O)[C@H]2CC[C@H](C2)C1=O` (single isomer, unassigned) [Compound T7], the pest or weed control at 125 g/ha (in assay [1]; in assay [2]; in [3]; in the assay on Setaria faberi (SETFA) [4]; in the assay on Lolium perenne (LOLPE) [5]; with Avena fatua (AVEFA) [6]) was 0% throughout. The pest or weed control at 250 g/ha in assay [7] stood at 0%; in [8], 20%; in assay [9], 0%; in the assay on Setaria faberi (SETFA) [10], 10%; in the assay with Lolium perenne (LOLPE) [11], 0%; in the assay on Avena fatua (AVEFA) [12], 10%.
As for `CCc1ccc(-c2ccccc2)cc1C1=C(O)[C@H]2CC[C@H](C2)C1=O` (single isomer, unassigned) [Compound T2], the pest or weed control at 125 g/ha in [1] turned out to be 10%; in [2], 0%; in assay [3] it was 60%; with Setaria faberi (SETFA) [4], 30%; in the assay on Lolium perenne (LOLPE) [5], 0%; with Avena fatua (AVEFA) [6], 0%. Besides, the pest or weed control at 250 g/ha in assay [7] was found to be 0%; in [8], 0%; in [9], 100%; with Setaria faberi (SETFA) [10], 0%; in the assay on Lolium perenne (LOLPE) [11], 10%; in the assay with Avena fatua (AVEFA) [12] it was 20%.
Take `Cc1cc(-c2ccccc2)cc(C)c1C1=C(OC(=O)C(C)(C)C)C2CCC(C2)C1=O` (stereo not drawn) [Compound P2, 3-(3,5-dimethylbiphen-4-yl)-4-oxo-bicyclo[3.2.1]oct-2-en-2-yl 2,2-dimethylpropionate]: the pest or weed control at 125 g/ha in assay [1] was 30%; in [2], 40%; in assay [3], 60%; in the assay on Setaria faberi (SETFA) [4] it was 40%; in the assay with Lolium perenne (LOLPE) [5] it was 10%; in the assay on Avena fatua (AVEFA) [6], 0%. Further, the pest or weed control at 250 g/ha came to 30% in [7]; 70% in assay [8]; 50% in [9]; 70% in the assay with Setaria faberi (SETFA) [10]; 30% in the assay on Lolium perenne (LOLPE) [11]; 40% in the assay with Avena fatua (AVEFA) [12].
